From ChEMBL document CHEMBL2429783, “Discovery of epigenetic regulator I-BET762: lead optimization to afford a clinical candidate inhibitor of the BET bromodomains” (J Med Chem, 2013)
Converted amounts (≈) assume the structure as drawn.

What was measured:
[1] = biological target: Bromodomain-containing protein 2 (Homo sapiens, UniProt P25440)
Description: Binding affinity to His6-tagged BRD2 (unknown origin) after 60 mins by fluorescence anisotropy binding Assay

[2] = biological target: Bromodomain-containing protein 3 (Homo sapiens, UniProt Q15059)
Description: Binding affinity to His6-tagged BRD3 (unknown origin) after 60 mins by fluorescence anisotropy binding Assay

PBMC = experiment: cells; settings: Homo sapiens, read-out: pIC50 (converted)
Description: Antiinflammatory activity against human PBMC cells assessed as LPS-induced IL-6 production by chemiluminescence assay

[3] = Half life in buffer at pH 2 by HPLC analysis; format: physicochemical
HepG2 = experiment: Upregulation of human apoA1 level in human HepG2 cells after 16 to 20 hrs by luciferase reporter gene assay; format: functional
physchem = settings: FaSSIF, pH 6.5
Description: Solubility of the compound in FaSSIF at pH 6.5 after 16 hrs by HPLC analysis

Salmonella typhimurium [4] = experiment: Genotoxicity in Salmonella typhimurium TA98 by Ames test in presence of rat S9 mix; format: toxicity, organism-based; settings: salmonella enterica subsp. enterica serovar typhimurium
Hepatocyte [5] = settings: human, hepatocytes, 2 h
Description: Clearance in human hepatocytes after 120 mins by LC/MS/MS analysis

[6] = Fraction unbound in dog blood at 1000 ng/ml by equilibrium dialysis method; format: ADME, tissue-based, Canis lupus familiaris
[7] = Oral bioavailability in CD rat at 3 mg/kg after 1 hr; format: ADME, organism-based; settings: in vivo
in vivo [8] = settings: Balb/c, mouse, iv, 1 mg/kg
[9] = AUC (0 to infinity) in cynomolgus monkey at 2 mg/kg, iv and 5 mg/kg, po after 1 hr; format: ADME, organism-based, Macaca fascicularis; settings: plasma
[10] = Volume of distribution in cynomolgus monkey at 2 mg/kg, iv and 5 mg/kg, po after 1 hr; format: ADME, organism-based, Macaca fascicularis; settings: in vivo
[11] = cynomolgus monkey, hepatocytes, 2 h
Description: Clearance in cynomolgus monkey hepatocytes after 120 mins by LC/MS/MS analysis

[12] = Fraction unbound in mouse blood at 1000 ng/ml by equilibrium dialysis method; format: ADME, tissue-based
in vivo [13] = settings: beagle, dog, iv, 1 mg/kg
[14] = Volume of distribution in CD rat at 1 mg/kg, iv and 3 mg/kg, po after 1 hr; format: ADME, organism-based; settings: in vivo
Liver [15] = settings: mouse, microsomes, 0.5 h
Description: Clearance in mouse liver microsomes after 30 mins by LC/MS/MS analysis

[16] = cynomolgus monkey, microsomes, 0.5 h
Description: Clearance in cynomolgus monkey liver microsomes after 30 mins by LC/MS/MS analysis

[17] = Terminal half life in beagle dog at 1 mg/kg, iv after 1 hr; format: ADME, organism-based, Canis lupus familiaris; design: dose 1 mg/kg, route intravenous; settings: in vivo, read-out: beta t1/2 (converted)
Hepatocyte [18] = settings: mouse, hepatocytes, 2 h
Description: Clearance in mouse hepatocytes after 120 mins by LC/MS/MS analysis

Salmonella typhimurium [19] = experiment: Genotoxicity in Salmonella typhimurium TA1537 by Ames test; format: toxicity, organism-based; settings: salmonella enterica subsp. enterica serovar typhimurium
[20] = Volume of distribution in beagle dog at 1 mg/kg, iv and 3 mg/kg, po after 1 hr; format: ADME, organism-based, Canis lupus familiaris; settings: in vivo
in vivo [21] = settings: cynomolgus monkey, iv, 2 mg/kg
[22] = AUC (0 to infinity) in CD rat at 1 mg/kg, iv and 3 mg/kg, po after 1 hr; format: ADME, organism-based; settings: plasma
Salmonella typhimurium [23] = experiment: Genotoxicity in Salmonella typhimurium TA100 by Ames test; format: toxicity, organism-based; settings: salmonella enterica subsp. enterica serovar typhimurium
in vivo [24] = settings: CD, rat, iv, 1 mg/kg
Salmonella typhimurium [25] = experiment: Genotoxicity in Salmonella typhimurium TA1535 by Ames test; format: toxicity, organism-based; settings: salmonella enterica subsp. enterica serovar typhimurium
Hepatocyte [26] = settings: rat, hepatocytes, 2 h
Description: Clearance in rat hepatocytes after 120 mins by LC/MS/MS analysis

Rattus norvegicus = experiment: Antiinflammatory activity against po dosed Sprague-Dawley rat immunoinflammatory model assessed as inhibition of KLH-induced ear swelling administered qd for 7 days measured 24 hrs post KLH challenge relative to control; format: functional, organism-based
[27] = Oral bioavailability in cynomolgus monkey at 5 mg/kg after 1 hr; format: ADME, organism-based, Macaca fascicularis; settings: in vivo
[28] = AUC (0 to infinity) in Balb/c mouse at 1 mg/kg, iv and 3 mg/kg, po after 1 hr; format: ADME, organism-based; settings: plasma
[29] = dog, hepatocytes, 2 h
Description: Clearance in dog hepatocytes after 120 mins by LC/MS/MS analysis

Liver microsomes [30] = settings: rat, 0.5 h
Description: Clearance in rat liver microsomes after 30 mins by LC/MS/MS analysis

[31] = Terminal half life in CD rat at 1 mg/kg, iv after 1 hr; format: ADME, organism-based; design: dose 1 mg/kg, route intravenous; settings: in vivo, read-out: beta t1/2 (converted)
[32] = Oral bioavailability in beagle dog at 3 mg/kg after 1 hr; format: ADME, organism-based, Canis lupus familiaris; settings: in vivo
[33] = Terminal half life in cynomolgus monkey at 2 mg/kg, iv after 1 hr; format: ADME, organism-based, Macaca fascicularis; design: dose 2 mg/kg, route intravenous; settings: in vivo, read-out: beta t1/2 (converted)
Salmonella typhimurium [34] = experiment: Genotoxicity in Salmonella typhimurium TA100 by Ames test in presence of rat S9 mix; format: toxicity, organism-based; settings: salmonella enterica subsp. enterica serovar typhimurium
[35] = AUC (0 to infinity) in beagle dog at 1 mg/kg, iv and 3 mg/kg, po after 1 hr; format: ADME, organism-based, Canis lupus familiaris; settings: plasma
Salmonella typhimurium [36] = experiment: Genotoxicity in Salmonella typhimurium TA1537 by Ames test in presence of rat S9 mix; format: toxicity, organism-based; settings: salmonella enterica subsp. enterica serovar typhimurium
[37] = Fraction unbound in human blood at 1000 ng/ml by equilibrium dialysis method; format: ADME, tissue-based
[38] = Volume of distribution in Balb/c mouse at 1 mg/kg, iv and 3 mg/kg, po after 1 hr; format: ADME, organism-based; settings: in vivo
[39] = Oral bioavailability in Balb/c mouse at 3 mg/kg after 1 hr; format: ADME, organism-based; settings: in vivo
[40] = Fraction unbound in rat blood at 1000 ng/ml by equilibrium dialysis mehod; format: ADME, tissue-based
[41] = Terminal half life in Balb/c mouse at 1 mg/kg, iv after 1 hr; format: ADME, organism-based; design: dose 1 mg/kg, route intravenous; settings: in vivo, read-out: beta t1/2 (converted)
Liver [42] = settings: dog, microsomes, 0.5 h
Description: Clearance in dog liver microsomes after 30 mins by LC/MS/MS analysis

Salmonella typhimurium [43] = experiment: Genotoxicity in Salmonella typhimurium TA98 by Ames test; format: toxicity, organism-based; settings: salmonella enterica subsp. enterica serovar typhimurium
Salmonella typhimurium [44] = experiment: Genotoxicity in Salmonella typhimurium TA1535 by Ames test in presence of rat S9 mix; format: toxicity, organism-based; settings: salmonella enterica subsp. enterica serovar typhimurium
Liver microsomes [45] = settings: human, 0.5 h
Description: Clearance in human liver microsomes after 30 mins by LC/MS/MS analysis

Bromodomain-containing protein 3, sequence (Q15059 whole entry): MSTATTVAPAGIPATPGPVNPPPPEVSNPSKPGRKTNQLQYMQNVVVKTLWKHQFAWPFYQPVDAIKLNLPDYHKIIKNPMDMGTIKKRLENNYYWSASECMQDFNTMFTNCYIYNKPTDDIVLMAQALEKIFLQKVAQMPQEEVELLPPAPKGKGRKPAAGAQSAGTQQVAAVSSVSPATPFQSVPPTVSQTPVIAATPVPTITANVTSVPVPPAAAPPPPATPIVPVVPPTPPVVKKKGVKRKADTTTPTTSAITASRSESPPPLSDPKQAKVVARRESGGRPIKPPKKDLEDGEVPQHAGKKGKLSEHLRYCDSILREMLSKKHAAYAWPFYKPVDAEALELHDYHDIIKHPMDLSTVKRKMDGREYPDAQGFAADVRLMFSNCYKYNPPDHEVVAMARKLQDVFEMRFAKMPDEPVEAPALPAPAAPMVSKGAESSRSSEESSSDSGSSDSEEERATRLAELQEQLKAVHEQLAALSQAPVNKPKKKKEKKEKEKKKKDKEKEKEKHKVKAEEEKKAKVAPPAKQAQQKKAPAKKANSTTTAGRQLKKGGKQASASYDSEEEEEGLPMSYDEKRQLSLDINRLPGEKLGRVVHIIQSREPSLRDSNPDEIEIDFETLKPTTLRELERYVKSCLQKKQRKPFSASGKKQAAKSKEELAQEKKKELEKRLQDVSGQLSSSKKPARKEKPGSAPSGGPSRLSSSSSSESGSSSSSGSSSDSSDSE
Bromodomain-containing protein 2, sequence (P25440 whole entry): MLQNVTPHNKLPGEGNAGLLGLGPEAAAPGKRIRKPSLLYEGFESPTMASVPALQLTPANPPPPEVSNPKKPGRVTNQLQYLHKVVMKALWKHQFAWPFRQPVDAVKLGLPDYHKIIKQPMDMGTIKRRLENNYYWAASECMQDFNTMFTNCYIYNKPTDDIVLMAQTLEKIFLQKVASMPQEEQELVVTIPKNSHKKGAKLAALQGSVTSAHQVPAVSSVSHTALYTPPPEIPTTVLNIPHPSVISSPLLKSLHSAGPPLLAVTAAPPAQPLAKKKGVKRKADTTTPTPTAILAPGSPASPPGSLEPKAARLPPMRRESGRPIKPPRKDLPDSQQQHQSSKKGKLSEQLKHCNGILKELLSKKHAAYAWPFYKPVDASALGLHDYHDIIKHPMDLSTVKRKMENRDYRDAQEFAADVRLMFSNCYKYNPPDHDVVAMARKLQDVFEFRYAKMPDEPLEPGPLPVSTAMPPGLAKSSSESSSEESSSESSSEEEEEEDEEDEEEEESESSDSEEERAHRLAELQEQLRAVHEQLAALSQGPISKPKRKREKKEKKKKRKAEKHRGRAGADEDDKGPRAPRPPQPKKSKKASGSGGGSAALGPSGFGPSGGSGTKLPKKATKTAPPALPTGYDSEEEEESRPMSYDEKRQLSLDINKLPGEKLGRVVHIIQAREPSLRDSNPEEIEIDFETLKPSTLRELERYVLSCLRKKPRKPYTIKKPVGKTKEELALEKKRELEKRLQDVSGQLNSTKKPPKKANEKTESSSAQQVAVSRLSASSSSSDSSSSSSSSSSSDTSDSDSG

Cc1ccc(C2=NC(NC(=O)OCc3ccccc3)c3nnc(C)n3-c3ccccc32)cc1 (centres undefined)
IC50 [1]: 1.58 µM
IC50 [2]: 1 µM

Cc1nnc2n1-c1ccc([N+](=O)[O-])cc1C(c1ccccc1)=NC2NC(=O)OCc1ccccc1 (centres undefined)
IC50 [1]: 12.6 µM
IC50 (PBMC): 2 µM

Cc1nnc2n1-c1ccccc1C(c1ccccc1)=NC2NC(=O)OCc1ccccc1 (centres undefined)
half-life [3]: 34.8 min
IC50 (PBMC): 0.158 µM
EC170 (HepG2): 0.22 µM

COc1ccc2c(c1)C(c1ccccc1)=NC(NC(=O)OCc1ccccc1)c1nnc(C)n1-2 (centres undefined)
IC50 [1]: 0.794 µM
IC50 (PBMC): 0.126 µM
IC50 [2]: 0.794 µM

Cc1nnc2n1-c1ccccc1C(c1ccccc1)=NC2CC(=O)NCc1ccccc1 (centres undefined)
IC50 [1]: 2.51 µM
solubility at 16 h (physchem): 0.001 mg/mL (≈ 2.37 µM)
half-life [3]: > 120 min
IC50 (PBMC): 5.01 µM
IC50 [2]: 2 µM

Cc1nnc2n1-c1ccccc1C(c1ccccc1)=NC2NC(=O)Oc1cccc(F)c1 (centres undefined)
IC50 [1]: 3.16 µM
IC50 [2]: 1.26 µM

CCOC(=O)NC1N=C(c2ccccc2)c2ccccc2-n2c(C)nnc21 (centres undefined)
half-life [3]: 33.6 min

COc1ccc(C2=NC(NC(=O)OCc3ccccc3)c3nnc(C)n3-c3ccccc32)cc1 (centres undefined)
IC50 [1]: 2 µM
IC50 (PBMC): 0.316 µM
IC50 [2]: 1 µM

CCCCOC(=O)C[C@@H]1N=C(c2ccc(Cl)cc2)c2cc(OC)ccc2-n2c(C)nnc21
solubility at 16 h (physchem): 0.104 mg/mL (≈ 230 µM)

COC(=O)C[C@@H]1N=C(c2ccc(Cl)cc2)c2cc(OC)ccc2-n2c(C)nnc21
solubility at 16 h (physchem): 0.115 mg/mL (≈ 280 µM)
IC50 (PBMC): 0.126 µM

COc1ccc2c(c1)C(c1ccc(Cl)cc1)=N[C@@H](CC(=O)O)c1nnc(C)n1-2
solubility at 16 h (physchem): 0.113 mg/mL (≈ 285 µM)
IC50 (PBMC): > 100 µM

Cc1nnc2n1-c1ccccc1C(c1ccccc1)=NC2NC(=O)NCc1ccccc1 (centres undefined)
IC50 [1]: 2 µM
IC50 (PBMC): 0.398 µM
IC50 [2]: 0.794 µM

Cc1nnc2n1-c1ccccc1C(c1ccccc1)=NC2NS(=O)(=O)Cc1ccccc1 (centres undefined)
IC50 [1]: 31.6 µM
IC50 (PBMC): 15.8 µM

Cc1nnc2n1-c1ccccc1C(c1ccccc1)=NC2NC(=O)CCc1ccccc1 (centres undefined)
IC50 [1]: 15.8 µM
IC50 [2]: 3.16 µM

Cc1ccc2c(c1)-n1c(C)nnc1C(NC(=O)OCc1ccccc1)N=C2c1ccccc1 (centres undefined)
IC50 [1]: 2.51 µM
IC50 (PBMC): 0.631 µM
IC50 [2]: 1.26 µM

COc1ccc2c(c1)C(c1ccc(Cl)cc1)=N[C@@H](CC(=O)Nc1cccnc1)c1nnc(C)n1-2
solubility at 16 h (physchem): 0.095 mg/mL (≈ 201 µM)

CCNC(=O)C[C@@H]1N=C(c2ccc(Cl)cc2)c2ccc(OC)cc2-n2c(C)nnc21
IC50 (PBMC): 0.631 µM

COc1ccc2c(c1)C(c1ccc(Cl)cc1)=N[C@@H](CC(=O)Nc1ccc(F)cc1)c1nnc(C)n1-2
solubility at 16 h (physchem): 0.105 mg/mL (≈ 214 µM)
IC50 (PBMC): 2 µM

Cc1nnc2n1-c1ccc(Cl)cc1C(c1ccccc1)=NC2NC(=O)OCc1ccccc1 (centres undefined)
IC50 [1]: 3.16 µM
IC50 (PBMC): 0.631 µM
IC50 [2]: 1.58 µM

CCNC(=O)C[C@@H]1N=C(c2ccc(Cl)cc2)c2cc(OC)ccc2-n2c(C)nnc21 [MOLIBRESIB]
Activity (Salmonella typhimurium [4]): Non-toxic
CLH (Hepatocyte [5]): < 0.86 mL/min/g
fraction unbound at 1000 ng/ml [6]: 0.24
bioavailability [7]: 27%
clearance at 1 h (in vivo [8]): 4.5 L/h/kg
AUC(0-inf) [9]: 3.34 µg·h/mL
Vd [10]: 1.5 L/kg
CLH [11]: < 0.085 mL/min/g
fraction unbound at 1000 ng/ml [12]: 0.21
clearance at 1 h (in vivo [13]): 0.3 L/h/kg
Vd [14]: 1.8 L/kg
CLH (Liver [15]): < 0.53 mL/min/g
CLH [16]: 0.2 mL/min/g
half-life [17]: 354 min
CLH (Hepatocyte [18]): < 0.86 mL/min/g
Activity (Salmonella typhimurium [19]): Non-toxic
Vd [20]: 1.8 L/kg
clearance at 1 h (in vivo [21]): 0.84 L/h/kg
AUC(0-inf) [22]: 0.201 µg·h/mL
Activity (Salmonella typhimurium [23]): Non-toxic
clearance at 1 h (in vivo [24]): 3.78 L/h/kg
Activity (Salmonella typhimurium [25]): Non-toxic
CLH (Hepatocyte [26]): < 0.86 mL/min/g
Activity (Rattus norvegicus): Dose-dependent effect
bioavailability [27]: 52%
AUC(0-inf) [28]: 0.468 µg·h/mL
CLH [29]: < 1.7 mL/min/g
CLH (Liver microsomes [30]): 1.45 mL/min/g
half-life [31]: 30 min
bioavailability [32]: 44%
half-life [33]: 90 min
Activity (Salmonella typhimurium [34]): Non-toxic
AUC(0-inf) [35]: 4.74 µg·h/mL
Activity (Salmonella typhimurium [36]): Non-toxic
fraction unbound at 1000 ng/ml [37]: 0.19
Vd [38]: 6.5 L/kg
bioavailability [39]: 61%
IC50 (PBMC): 0.316 µM
fraction unbound at 1000 ng/ml [40]: 0.18
half-life [41]: 90 min
CLH (Liver [42]): 0.69 mL/min/g
Activity (Salmonella typhimurium [43]): Non-toxic
Activity (Salmonella typhimurium [44]): Non-toxic
CLH (Liver microsomes [45]): < 0.53 mL/min/g

CCOC(=O)NC1N=C(c2ccc(Cl)cc2)c2ccccc2-n2c(C)nnc21 (centres undefined)
IC50 [1]: 2.51 µM
half-life [3]: 45 min
IC50 [2]: 1.26 µM

COc1ccc2c(c1)C(c1ccc(Cl)cc1)=N[C@@H](CC(=O)NCC1CC1)c1nnc(C)n1-2
solubility at 16 h (physchem): 0.111 mg/mL (≈ 247 µM)

CCOC(=O)N[C@@H]1N=C(c2ccccc2)c2ccccc2-n2c(C)nnc21
half-life [3]: 13.8 min
IC50 (PBMC): 0.2 µM

COc1ccc2c(c1)C(c1ccc(Cl)cc1)=N[C@@H](CC(=O)Nc1ccccn1)c1nnc(C)n1-2
solubility at 16 h (physchem): 0.115 mg/mL (≈ 243 µM)
IC50 (PBMC): 0.316 µM

CCNC(=O)C[C@@H]1N=C(c2cccc(F)c2)c2cc(OC)ccc2-n2c(C)nnc21
solubility at 16 h (physchem): 0.116 mg/mL (≈ 285 µM)

Cc1nnc2n1-c1ccccc1C(c1ccccc1)=NC2NC(=O)OCc1ccc(F)cc1 (centres undefined)
IC50 [1]: 2 µM
half-life [3]: 19.8 min
IC50 (PBMC): 0.316 µM
IC50 [2]: 1 µM

COc1ccccc1C1=NC(NC(=O)OCc2ccccc2)c2nnc(C)n2-c2ccccc21 (centres undefined)
IC50 [1]: 10 µM
IC50 (PBMC): 10 µM

COc1cccc(C2=NC(NC(=O)OCc3ccccc3)c3nnc(C)n3-c3ccccc32)c1 (centres undefined)
IC50 [1]: 3.16 µM
IC50 (PBMC): 0.501 µM
